{"source": "paper PMC2806030", "about": "“Inhibition of mammalian S6 kinase by resveratrol suppresses autophagy” (Aging (Albany NY), 2009)", "assay_in_all_cases": "biochemical", "parameters_in_all_cases": "Upstate KinaseProfiler in vitro kinase activity assay, per cent of DMSO control", "details_in_all_cases": "read-out: Activity (% of Control)", "key": {"PAK6(h)": {"target": "PAK6(h) (Homo sapiens, UniProt Q9NQU5)", "sequence (Q9NQU5 whole entry)": "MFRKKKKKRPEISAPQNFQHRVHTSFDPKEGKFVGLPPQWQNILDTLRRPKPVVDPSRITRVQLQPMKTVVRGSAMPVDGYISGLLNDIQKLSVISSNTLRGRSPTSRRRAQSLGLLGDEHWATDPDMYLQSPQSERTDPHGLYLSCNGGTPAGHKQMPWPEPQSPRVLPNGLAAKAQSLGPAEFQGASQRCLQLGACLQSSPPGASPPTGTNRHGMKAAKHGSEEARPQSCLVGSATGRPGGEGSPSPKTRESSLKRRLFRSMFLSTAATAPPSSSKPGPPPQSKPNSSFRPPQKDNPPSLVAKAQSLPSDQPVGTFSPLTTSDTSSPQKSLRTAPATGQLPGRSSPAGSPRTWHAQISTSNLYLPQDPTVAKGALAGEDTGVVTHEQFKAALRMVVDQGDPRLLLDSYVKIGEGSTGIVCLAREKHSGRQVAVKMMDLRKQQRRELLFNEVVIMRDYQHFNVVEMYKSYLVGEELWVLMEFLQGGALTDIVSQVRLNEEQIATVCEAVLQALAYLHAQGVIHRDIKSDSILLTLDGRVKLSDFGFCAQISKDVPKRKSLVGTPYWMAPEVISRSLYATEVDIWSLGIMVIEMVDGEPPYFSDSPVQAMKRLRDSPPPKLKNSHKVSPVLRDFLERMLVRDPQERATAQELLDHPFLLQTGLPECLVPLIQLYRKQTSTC", "method_in_brief": "(§1)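 Profiling done with Upstate KinaseProfiler service across 100 kinases, resveratrol tested at 20 μM; activity expressed relative to control.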"}, "Fms(h)": {"target": "T1, Fms(h) (Homo sapiens, UniProt P07333)", "T1 construct": "gene CSF1R", "T1 sequence (P07333 whole entry)": "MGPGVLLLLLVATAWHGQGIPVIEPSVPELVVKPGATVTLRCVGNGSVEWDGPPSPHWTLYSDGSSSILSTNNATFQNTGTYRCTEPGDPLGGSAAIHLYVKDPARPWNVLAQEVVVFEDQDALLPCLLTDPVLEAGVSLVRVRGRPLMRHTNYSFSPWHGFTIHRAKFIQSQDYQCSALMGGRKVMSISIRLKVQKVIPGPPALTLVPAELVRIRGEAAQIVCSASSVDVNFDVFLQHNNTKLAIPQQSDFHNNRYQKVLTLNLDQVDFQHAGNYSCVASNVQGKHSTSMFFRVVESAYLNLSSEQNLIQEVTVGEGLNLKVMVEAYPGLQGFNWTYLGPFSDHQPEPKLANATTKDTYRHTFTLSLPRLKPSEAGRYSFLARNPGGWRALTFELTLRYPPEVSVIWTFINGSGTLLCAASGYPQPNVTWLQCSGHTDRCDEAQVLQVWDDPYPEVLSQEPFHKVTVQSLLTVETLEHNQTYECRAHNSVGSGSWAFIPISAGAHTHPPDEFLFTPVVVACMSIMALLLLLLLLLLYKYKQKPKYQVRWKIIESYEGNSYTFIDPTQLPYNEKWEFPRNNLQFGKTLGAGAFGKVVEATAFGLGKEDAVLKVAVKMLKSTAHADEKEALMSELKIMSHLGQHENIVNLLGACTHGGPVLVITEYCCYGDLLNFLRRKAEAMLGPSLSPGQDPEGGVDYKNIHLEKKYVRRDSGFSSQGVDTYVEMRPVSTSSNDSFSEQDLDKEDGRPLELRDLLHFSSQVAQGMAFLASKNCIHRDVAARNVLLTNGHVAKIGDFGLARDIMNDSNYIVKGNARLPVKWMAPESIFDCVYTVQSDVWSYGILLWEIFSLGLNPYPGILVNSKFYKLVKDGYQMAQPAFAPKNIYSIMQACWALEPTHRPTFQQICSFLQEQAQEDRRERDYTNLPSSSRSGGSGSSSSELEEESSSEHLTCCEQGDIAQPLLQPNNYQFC", "method_in_brief": "as §1"}, "SAPK2a(h)": {"target": "T2, SAPK2a(h) (Homo sapiens, UniProt Q16539)", "T2 construct": "gene MAPK14", "T2 sequence (Q16539 whole entry)": "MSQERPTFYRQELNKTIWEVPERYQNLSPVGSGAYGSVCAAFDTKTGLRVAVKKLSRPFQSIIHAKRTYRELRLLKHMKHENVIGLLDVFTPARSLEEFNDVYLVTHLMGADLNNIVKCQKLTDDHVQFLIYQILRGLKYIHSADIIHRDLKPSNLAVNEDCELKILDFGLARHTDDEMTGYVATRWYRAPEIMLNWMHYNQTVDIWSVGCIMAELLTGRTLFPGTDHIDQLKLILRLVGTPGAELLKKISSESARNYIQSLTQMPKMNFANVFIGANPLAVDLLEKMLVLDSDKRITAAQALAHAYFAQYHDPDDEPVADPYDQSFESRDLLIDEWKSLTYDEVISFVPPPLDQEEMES", "method_in_brief": "as §1"}, "NLK": {"target": "NLK (Homo sapiens, UniProt Q9UBE8)", "sequence (Q9UBE8 whole entry)": "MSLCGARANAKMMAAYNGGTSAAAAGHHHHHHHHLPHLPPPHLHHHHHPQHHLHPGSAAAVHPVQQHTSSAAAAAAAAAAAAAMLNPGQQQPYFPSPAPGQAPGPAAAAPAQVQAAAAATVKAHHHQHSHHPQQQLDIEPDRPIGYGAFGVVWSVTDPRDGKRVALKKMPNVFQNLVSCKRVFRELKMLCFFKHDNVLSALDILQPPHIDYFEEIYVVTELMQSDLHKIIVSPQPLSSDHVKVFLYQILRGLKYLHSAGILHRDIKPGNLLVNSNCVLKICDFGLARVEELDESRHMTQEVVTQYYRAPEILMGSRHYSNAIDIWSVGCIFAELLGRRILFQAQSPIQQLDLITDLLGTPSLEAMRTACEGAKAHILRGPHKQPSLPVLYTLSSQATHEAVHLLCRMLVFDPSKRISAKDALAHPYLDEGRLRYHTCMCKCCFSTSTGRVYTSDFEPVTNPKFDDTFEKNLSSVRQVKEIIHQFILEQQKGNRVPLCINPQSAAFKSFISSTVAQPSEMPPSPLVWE", "method_in_brief": "as §1"}, "PKG1ß(h)": {"target": "T3, PKG1ß(h) (Homo sapiens, UniProt Q13976)", "T3 construct": "gene PRKG1; isoform beta", "method_in_brief": "as §1"}, "PI 3-Kinaseβ(h)": {"target": "T4, PI 3-Kinaseβ(h) (Homo sapiens, UniProt P42338)", "T4 construct": "gene PIK3CB", "method_in_brief": "as §1"}, "MST1(h)": {"target": "T5, MST1(h) (Homo sapiens, UniProt Q13043)", "T5 construct": "gene STK4", "T5 sequence (Q13043 whole entry)": "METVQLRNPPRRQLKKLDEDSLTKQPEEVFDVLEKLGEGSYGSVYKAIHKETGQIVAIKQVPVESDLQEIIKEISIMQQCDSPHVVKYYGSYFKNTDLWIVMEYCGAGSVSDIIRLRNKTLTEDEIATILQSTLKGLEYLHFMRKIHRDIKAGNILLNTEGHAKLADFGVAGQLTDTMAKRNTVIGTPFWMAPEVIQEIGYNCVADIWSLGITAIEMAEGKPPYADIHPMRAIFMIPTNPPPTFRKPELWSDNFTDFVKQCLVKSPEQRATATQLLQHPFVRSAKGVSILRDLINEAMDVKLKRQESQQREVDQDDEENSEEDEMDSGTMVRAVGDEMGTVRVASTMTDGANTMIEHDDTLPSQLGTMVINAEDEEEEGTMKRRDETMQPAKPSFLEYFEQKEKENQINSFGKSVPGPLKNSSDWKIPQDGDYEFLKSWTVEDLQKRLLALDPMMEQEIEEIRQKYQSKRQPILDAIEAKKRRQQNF", "method_in_brief": "as §1"}, "GSK3ß(h)": {"target": "T6, GSK3ß(h) (Homo sapiens, UniProt P49841)", "T6 construct": "gene GSK3B", "method_in_brief": "as §1"}, "EphB2(h)": {"target": "EphB2(h) (Homo sapiens, UniProt P29323)", "method_in_brief": "as §1"}, "Aurora-A(h)": {"target": "T7, Aurora-A(h) (Homo sapiens, UniProt O14965)", "T7 construct": "gene AURKA", "method_in_brief": "as §1"}, "PKBα(h)": {"target": "T8, PKBα(h) (Homo sapiens, UniProt P31749)", "T8 construct": "gene AKT1", "method_in_brief": "as §1"}, "CHK1(h)": {"target": "T9, CHK1(h) (Homo sapiens, UniProt O14757)", "T9 construct": "gene CHEK1", "T9 sequence (O14757 whole entry)": "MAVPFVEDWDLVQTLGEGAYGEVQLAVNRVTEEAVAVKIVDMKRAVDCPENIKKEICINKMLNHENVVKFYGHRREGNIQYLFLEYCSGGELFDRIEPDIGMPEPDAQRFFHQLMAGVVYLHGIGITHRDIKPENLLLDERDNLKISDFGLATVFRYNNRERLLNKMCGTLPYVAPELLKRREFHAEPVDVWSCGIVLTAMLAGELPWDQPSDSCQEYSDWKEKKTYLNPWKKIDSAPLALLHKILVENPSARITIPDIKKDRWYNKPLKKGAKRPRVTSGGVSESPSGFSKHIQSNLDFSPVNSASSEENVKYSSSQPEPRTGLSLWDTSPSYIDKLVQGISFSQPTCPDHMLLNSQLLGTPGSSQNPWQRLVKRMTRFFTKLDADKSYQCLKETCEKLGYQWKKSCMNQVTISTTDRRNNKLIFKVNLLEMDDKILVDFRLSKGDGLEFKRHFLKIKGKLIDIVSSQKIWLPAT", "method_in_brief": "as §1"}, "MSK2(h)": {"target": "T10, MSK2(h) (Homo sapiens, UniProt O75676)", "T10 construct": "gene RPS6KA4", "method_in_brief": "as §1"}, "SAPK3(h)": {"target": "T11, SAPK3(h) (Homo sapiens, UniProt P53778)", "T11 construct": "gene MAPK12", "T11 sequence (P53778 whole entry)": "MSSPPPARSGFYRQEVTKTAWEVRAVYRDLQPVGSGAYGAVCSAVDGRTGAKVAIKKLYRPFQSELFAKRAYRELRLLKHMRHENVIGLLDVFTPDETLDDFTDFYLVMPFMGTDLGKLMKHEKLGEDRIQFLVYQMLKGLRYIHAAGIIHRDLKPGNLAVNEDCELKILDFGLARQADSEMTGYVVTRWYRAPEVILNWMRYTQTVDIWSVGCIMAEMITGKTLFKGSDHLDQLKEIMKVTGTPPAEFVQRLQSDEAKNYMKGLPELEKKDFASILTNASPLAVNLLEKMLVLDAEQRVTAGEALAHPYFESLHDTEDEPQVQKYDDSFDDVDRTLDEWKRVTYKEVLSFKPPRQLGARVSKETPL", "method_in_brief": "as §1"}, "p70S6K(h)": {"target": "T12, p70S6K(h) (Homo sapiens, UniProt P23443)", "T12 construct": "gene RPS6KB1", "T12 sequence (P23443 whole entry)": "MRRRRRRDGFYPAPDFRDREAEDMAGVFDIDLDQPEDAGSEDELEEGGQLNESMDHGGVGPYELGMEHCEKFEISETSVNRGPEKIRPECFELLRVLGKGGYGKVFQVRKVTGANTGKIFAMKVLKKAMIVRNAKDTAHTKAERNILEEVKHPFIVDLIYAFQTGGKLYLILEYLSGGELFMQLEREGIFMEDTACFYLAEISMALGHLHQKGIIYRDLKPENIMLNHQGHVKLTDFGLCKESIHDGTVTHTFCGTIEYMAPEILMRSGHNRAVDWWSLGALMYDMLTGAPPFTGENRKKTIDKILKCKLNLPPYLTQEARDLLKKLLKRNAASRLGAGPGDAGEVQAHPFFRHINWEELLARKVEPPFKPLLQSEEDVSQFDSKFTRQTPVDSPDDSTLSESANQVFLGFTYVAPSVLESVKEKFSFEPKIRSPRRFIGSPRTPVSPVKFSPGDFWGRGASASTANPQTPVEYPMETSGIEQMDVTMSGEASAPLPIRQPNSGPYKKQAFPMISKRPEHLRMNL", "method_in_brief": "as §1"}, "ZAP-70(h)": {"target": "T13, ZAP-70(h) (Homo sapiens, UniProt P43403)", "T13 construct": "gene ZAP70", "T13 sequence (P43403 whole entry)": "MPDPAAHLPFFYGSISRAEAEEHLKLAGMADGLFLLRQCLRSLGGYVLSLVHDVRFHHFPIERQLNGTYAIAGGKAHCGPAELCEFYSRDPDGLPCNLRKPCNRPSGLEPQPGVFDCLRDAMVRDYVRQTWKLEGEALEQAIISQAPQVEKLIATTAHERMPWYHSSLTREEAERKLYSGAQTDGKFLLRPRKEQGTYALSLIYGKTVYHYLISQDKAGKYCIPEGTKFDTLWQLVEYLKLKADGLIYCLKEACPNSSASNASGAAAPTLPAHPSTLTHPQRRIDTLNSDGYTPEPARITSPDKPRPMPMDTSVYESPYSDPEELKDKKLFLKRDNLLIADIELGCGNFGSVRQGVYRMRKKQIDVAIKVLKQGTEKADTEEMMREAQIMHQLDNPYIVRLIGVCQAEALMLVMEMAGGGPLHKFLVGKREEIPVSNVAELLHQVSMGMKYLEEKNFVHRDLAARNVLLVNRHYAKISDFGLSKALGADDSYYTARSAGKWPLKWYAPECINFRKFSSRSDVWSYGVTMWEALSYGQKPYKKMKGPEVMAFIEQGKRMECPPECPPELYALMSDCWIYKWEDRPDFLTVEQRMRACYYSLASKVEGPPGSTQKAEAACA", "method_in_brief": "as §1"}, "Met(h)": {"target": "Met(h) (Homo sapiens, UniProt P08581)", "method_in_brief": "as §1"}, "SGK2(h)": {"target": "SGK2(h) (Homo sapiens, UniProt Q9HBY8)", "method_in_brief": "as §1"}}, "data": [{"smiles": "Oc1ccc(/C=C/c2cc(O)cc(O)c2)cc1", "note": "[Res, resveratrol]", "values": [{"measurement": "remaining activity at 20 µM", "setting": "PAK6(h)", "value": "103 ± 3", "unit": "%"}, {"measurement": "remaining activity at 20 µM", "setting": "Fms(h)", "value": "61 ± 2", "unit": "%"}, {"measurement": "remaining activity at 20 µM", "setting": "SAPK2a(h)", "value": "100 ± 4", "unit": "%"}, {"measurement": "remaining activity at 20 µM", "setting": "NLK", "value": "30 ± 2", "unit": "%"}, {"measurement": "remaining activity at 20 µM", "setting": "PKG1ß(h)", "value": "56 ± 4", "unit": "%"}, {"measurement": "remaining activity at 20 µM", "setting": "PI 3-Kinaseβ(h)", "value": "107 ± 1", "unit": "%"}, {"measurement": "remaining activity at 20 µM", "setting": "MST1(h)", "value": "75 ± 6", "unit": "%"}, {"measurement": "remaining activity at 20 µM", "setting": "GSK3ß(h)", "value": 92, "unit": "%"}, {"measurement": "remaining activity at 20 µM", "setting": "EphB2(h)", "value": "113 ± 1", "unit": "%"}, {"measurement": "remaining activity at 20 µM", "setting": "Aurora-A(h)", "value": "65 ± 1", "unit": "%"}, {"measurement": "remaining activity at 20 µM", "setting": "PKBα(h)", "value": "94 ± 2", "unit": "%"}, {"measurement": "remaining activity at 20 µM", "setting": "CHK1(h)", "value": "95 ± 2", "unit": "%"}, {"measurement": "remaining activity at 20 µM", "setting": "MSK2(h)", "value": "60 ± 1", "unit": "%"}, {"measurement": "remaining activity at 20 µM", "setting": "SAPK3(h)", "value": "110 ± 5", "unit": "%"}, {"measurement": "remaining activity at 20 µM", "setting": "p70S6K(h)", "value": "21 ± 1", "unit": "%"}, {"measurement": "remaining activity at 20 µM", "setting": "ZAP-70(h)", "value": "141 ± 2", "unit": "%"}, {"measurement": "remaining activity at 20 µM", "setting": "Met(h)", "value": "114 ± 5", "unit": "%"}, {"measurement": "remaining activity at 20 µM", "setting": "SGK2(h)", "value": "70 ± 1", "unit": "%"}]}]}
